Here are results for five compounds from ChEMBL document CHEMBL3244151, “9-hydroxy-1,2,3,4,5,6-hexahydro-1,5-methano-3-benzazocine derivatives as analgesics” (1977).

In the assay the test system is Mus musculus. The experiment in a line: Analgesic activity in sc dosed albino dd mouse by tail pressure stimuli method. It is filed as functional.

The term ED50 denotes the midpoint of the dose-response relation. Compound `CN1C[C@@H]2Cc3ccccc3[C@@](C)(C2)C1.Cl` displayed an ED50 of more than 50 mg/kg. In the case of `COc1ccc2c3c1O[C@H]1[C@@H](O)C=C[C@H]4[C@@H](C2)N(C)CC[C@@]341.COc1ccc2c3c1O[C@H]1[C@@H](O)C=C[C@H]4[C@@H](C2)N(C)CC[C@@]341.O.O=P(O)(O)O.O=P(O)(O)O` [CODEINE PHOSPHATE], it took a dose of 9.2 mg/kg to reach the 50% effect level (ED50). `Br.C[C@H]1[C@H]2Cc3ccc(O)cc3[C@]1(C)CN(C)C2`: the ED50 was 28 mg/kg. For `Br.CN1C[C@@H]2Cc3ccc(O)cc3[C@@](C)(C2)C1` the value was 8.4 mg/kg; for `Br.C[C@@H]1[C@H]2Cc3ccc(O)cc3[C@]1(C)CN(C)C2`, 32.8 mg/kg.
